Laboratory results published in patent US6358984B1, “2,4-dioxopyrrolidine and 2,4-dioxotetrahydrofuran derivatives and medicines containing the same as the active ingredient” (Lead Chemical Co., Ltd., priority 1996, dated 2002).
pIC50: −log10 of the molar value. Read-outs that look alike come from different tables or passages of the source.

Legend:
aortae of guinea pigs = assay: Inhibition of vascular contraction caused by angiotensin II using pieces of the aortae of guinea pigs; type: cell-based; details: guinea pig chest aorta, contraction induced by angiotensin II, read-out: Vascular contraction inhibition effect IC50
Protocol: Male Hartly guinea pigs (350 to 400 g) were contused on the head and sacrificed by allowing their blood to discharge from the arteria carotis communis. Immediately after death, the chest aorta was removed. A spiral sample of width 2 to 3 mm and length 20 to 25 mm was cut from the aorta, and was suspended in 4.5 ml of Krebs-Henseleit (K-H) solution (120 mM NaCl, 4.7 mM KCl, […], 1.2 mM KH2PO4, 2.5 mM CaCl2, 25 mM NaHCO3, and 10 mM glucose) in a Magnus vessel. The K-H solution in the Magnus vessel was maintained at 37° C., and a mixture gas of 95% O2 and 5% CO2 was continuously bubbled through the solution. First, 1 g of initial tension was applied to the sample, which was then left to stand rest for about 30 minutes, and 45 μl of 4M KCl solution was added to the solution to induce contraction. After contraction had stabilized, a washing operation was performed to replace the K-H solution. Then, after the sample was left to stand for 30 minutes, 45 μl of solvent DMSO was added to incubate the sample for 15 minutes, and 45 μl of angiotensin II solution (3×10^−8M) was added to induce contraction. This operation was repeated three times and 100% contraction was used as the average. Subsequently, the sample was stabilized by washing. Then, a 45 μl sample of each test compound prepared for each concentration (3×10^−5M to 10^−7M) using DMSO as a solvent was used to observe the inhibition effect of angiotensin II on vascular contraction by performing the same operation as described above. The contraction reaction was recorded on a recorder (RTA-1100, Japan Photoelectronics) via an equi-scale pressure transducer (TB-651T, Japan Photoelectronics). The angiotensin II inhibition effects of the test compounds were evaluated using the IC50 value.

angiotensin II receptor = biological target: T1, angiotensin II receptor (Oryctolagus cuniculus, UniProt P34976); assay: Binding inhibition of 3H labeled angiotensin II to angiotensin II receptor membrane fraction; design: species or system rabbit; details: rabbit adrenal gland membrane, 3H labeled angiotensin II 10^-9M; read-out: Receptor binding inhibition effect IC50
T1 construct: fraction of angiotensin II receptor membrane ([…]) prepared from rabbit adrenal gland; from tissue; host or cells: rabbit adrenal gland membrane fraction
T1 sequence (P34976 1-359): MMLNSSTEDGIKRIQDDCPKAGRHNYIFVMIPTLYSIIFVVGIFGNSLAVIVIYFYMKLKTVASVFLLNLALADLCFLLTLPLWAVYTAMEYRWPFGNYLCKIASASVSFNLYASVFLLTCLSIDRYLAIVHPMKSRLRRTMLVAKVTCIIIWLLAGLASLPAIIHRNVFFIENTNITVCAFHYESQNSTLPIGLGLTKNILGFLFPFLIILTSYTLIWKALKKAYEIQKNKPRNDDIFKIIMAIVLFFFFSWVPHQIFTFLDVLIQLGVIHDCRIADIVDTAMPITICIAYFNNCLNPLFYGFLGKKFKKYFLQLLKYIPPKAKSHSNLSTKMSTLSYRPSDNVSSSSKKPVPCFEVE
Protocol: The method of Cox et. al (Biochemical Pharmacology 33, 4057-4064 (1984) was modified to conduct angiotensin II receptor binding inhibition experiments. The present compounds (10^−5M to 10^−9M) and ^3H labeled angiotensin II (10^−9M) were added to a fraction of angiotensin II receptor membrane ([…]) prepared from rabbit adrenal gland and were allowed to react in a 20 mM Tris HCl buffer (pH: 7.0) containing 120 mM NaCl, 5 mM EDTA, 0.1 mM PMSF, and 0.2% BSA at 30° C. for 20 minutes so that the final volume was 540 μl. Then, the reaction mixture was quickly passed through a filter (whatman GF/B), and the filter was then rinsed three times in 4 ml of the buffer cooled in ice. Then, the radioactivity of receptor binding ^3H labeled angiotensin II captured on the filter was measured using a liquid scintillation counter. The angiotensin II receptor binding inhibition activity of the present compounds was evaluated based on the concentration (IC 50) required to replace 50% of the total amount of specifically binding ^3H labeled angiotensin II.

[1] = test system: hypertension caused by angiotensin II; assay: Inhibition effect in the hypertension caused by angiotensin II using rats; type: in vivo, rat; details: i. v., male SD rats, angiotensin II 100 ng/kg; for inhibition in vivo at 1 mg/kg: Rattus norvegicus, iv
Protocol: Male SD rats (age; 11 weeks; 310 to 330 g) Were used, and indwelling cannula were placed in the femoral aorta and the vena cava, under anesthesia with inactin. The arterial cannula was connected to a pressure transducer to record the blood pressure via a carrier amplifier (AP-601G Japan Photoelectronics) using a polygraph system (RM-6000 Japan Photoelectronics). Prior to tests using the test compounds, 100 ng/kg-equivalent angiotensin II (50 μl of serum solution from the rat) was administered using a regular-pulse cannula to check the hypertensive action. Then, 30 minutes later, a 1 mg/kg-equivalent test compound (50 μl of serum solution from the rat) was administered using the regular-pulse cannula, and similar administration of angiotensin II was performed 5 and 60 minutes later to check the corresponding hypertensive action. The hypertensive effect resulting from the administration of only angiotensin II was taken as a reference value of 100% to determine the antihypertensive rates of the test compounds.

[2] = 5 min, 5 minutes after administration, read-out: Inhibition effect in the hypertension by angiotensin II, 5 minutes after administration
[3] = 1 h, 60 minutes after administration, read-out: Inhibition effect in the hypertension by angiotensin II, 60 minutes after administration

Compound | melting point [°C] | pIC50 (aortae of guinea pigs; Cavia porcellus) | pIC50 (angiotensin II receptor) | inhibition in vivo at 1 mg/kg [1, 2] [%] | inhibition in vivo at 1 mg/kg [1, 3] [%] | pIC50 (aortae of guinea pigs) | Inhibition effect in the hypertension by angiotensin II, 5 minutes after administration ([1]; 1 mg/kg, 5 minutes after administration) | Inhibition effect in the hypertension by angiotensin II, 60 minutes after administration ([1]; 1 mg/kg, 60 minutes after administration)
CCCCc1nc(-c2ccccc2F)nn1Cc1ccc(-c2ccccc2/C=C2\NC(=O)CC2=O)cc1 [Compound 1h, 5-Butyl-3-(2-fluorophenyl)-1-[2′-[(2,4-dioxopyrrolidine-5(Z)-ylidene)methyl]biphenyl-4-yl]methyl-1H-1,2,4-triazole] | 169 to 170 | < 3.52 | 5.35 |  |  |  |  | 
CCCCc1nc(-c2ccc(F)cc2)nn1Cc1ccc(-c2ccccc2/C=C2\OC(=O)C=C2O)cc1 [Compound 2g, 5-Butyl-3-(4-fluorophenyl)-1-[2′-[(4-hydroxy-2(5H)-furanone-5(Z)-ylidene)methyl]biphenyl-4-yl]methyl-1H-1,2,4-triazole] | 175 to 176 | < 3.52 | 6.16 |  |  |  |  | 
CCCCc1nc(-c2cccs2)nn1Cc1ccc(-c2ccccc2/C=C2\NC(=O)CC2=O)cc1 [Compound 1k, 5-Butyl-3-(thiophene-2-yl)-1-[2′-[(2,4-dioxopyrrolidine-5(Z)-ylidene)methyl]biphenyl-4-yl]methyl-1H-1,2,4-triazole] | 186 to 187 | < 3.52 | 5.38 |  |  |  |  | 
CCCc1nc(CCC)n(Cc2ccc(-c3ccccc3/C=C3\NC(=O)CC3=O)cc2)n1 [Compound 1a, 3,5-Dipropyl-1-[2′-[(2,4-dioxopyrrolidine-5(Z)-ylidene)methyl]biphenyl-4-yl]methyl-1H-1,2,4-triazole] | 179 to 180 | < 3.52 | 6.66 | 30 to 70 | < 10 |  |  | 
CCCCc1nnc(CCCC)n1Cc1ccc(-c2ccccc2/C=C2\OC(=O)C=C2O)cc1 [Compound 19b, 3,5-Dibutyl-1-[2′-[(4-hydroxy-2(5H)-furanone-5(Z)-ylidene)-methyl]biphenyl-4-yl]methyl-4H-1,2,4-triazole] |  | < 3.52 | 6.17 |  |  |  |  | 
CCCCc1nc(-c2ccccc2)nn1Cc1ccc(-c2ccccc2/C=C2\OC(=O)C=C2O)cc1 [Compound 2e, 5-Butyl-3-phenyl-1-[2′-[(4-hydroxy-2(5H)-furanone-5(Z)-ylidene)methyl]biphenyl-4-yl]methyl-1H-1,2,4-triazole] | 188 to 189 | 3.81 | 6.74 | 30 to 70 | 30 to 70 |  |  | 
CCCCc1nc(-c2cccs2)nn1Cc1ccc(-c2ccccc2/C=C2\OC(=O)C=C2O)cc1 [Compound 2k, 5-Butyl-3-(thiophene-2-yl)-1-[2′-[(4-hydroxy-2(5H)-furanone-5(Z)-ylidene)methyl]biphenyl-4-yl]methyl-1H-1,2,4-triazole] | 179 to 180 | < 3.52 | 6.51 | 10 to 30 | < 10 |  |  | 
CC(C)c1nc(C(C)C)n(Cc2ccc(-c3ccccc3/C=C3\NC(=O)CC3=O)cc2)n1 [Compound 1b, 3,5-Diisopropyl-1-[2′-[(2,4-dioxopyrrolidine-5-(Z)-ylidene)methyl]biphenyl-4-yl]methyl-1H-1,2,4-triazole] | 141 to 142 | < 3.52 | < 5.15 |  |  |  |  | 
CCCCc1nc(-c2cccc(F)c2)nn1Cc1ccc(-c2ccccc2/C=C2\OC(=O)C=C2O)cc1 [Compound 2h, 5-Butyl-3-(3-fluorophenyl)-1-[2′-[(4-hydroxy-2(5H)-furanone-5(Z)-ylidene)methyl]biphenyl-4-yl]methyl-1H-1,2,4-triazole] | 184 to 185 |  |  |  |  |  |  | 
CCCCc1nc(C2CC2)nn1Cc1ccc(-c2ccccc2/C=C2\NC(=O)CC2=O)cc1 [Compound 1c, 5-Butyl-3-cyclopropyl-1-[2′-[(2,4-dioxopyrrolidine-5(Z)-ylidene)methyl]biphenyl-4-yl]methyl-1H-1,2,4-triazole] | 166 to 168 | < 3.52 | 5.70 |  |  |  |  | 
5-Butyl-3-(3-fluorophenyl)-1-[2′-[(4-hydroxy-2(5H)-furanone-5(Z)-ylidene)methyl]biphenyl-4-yl]methyl-1H-1,2,4-triazole [Compound 2h] |  |  |  |  |  | 3.66 | + (30% > + ≧ 10%) | − (10% > −)
CCCCc1nc(-c2ccc(F)cc2)nn1Cc1ccc(-c2ccccc2/C=C2\NC(=O)CC2=O)cc1 [Compound 1g, 5-Butyl-3-(4-fluorophenyl)-1-[2′-[(2,4-dioxopyrrolidine-5(Z)-ylidene)methyl]biphenyl-4-yl]methyl-1H-1,2,4-triazole] | 188 to 190 | < 3.52 | < 5.21 |  |  |  |  | 
CCCCc1nc(-c2ccncc2)nn1Cc1ccc(-c2ccccc2/C=C2\NC(=O)CC2=O)cc1 [Compound 1i, 5-Butyl-3-(pyridine-4-yl)-1-[2′-[(2,4-dioxopyrrolidine-5(Z)-ylidene)methyl]biphenyl-4-yl]methyl-1H-1,2,4-triazole] | 144 to 145 | < 3.52 | < 5.20 |  |  |  |  | 
CCCCc1nnc(CCCC)n1Cc1ccc(-c2ccccc2/C=C2\NC(=O)CC2=O)cc1 [Compound 19a] | 185 to 186 | < 3.52 | 5.10 |  |  |  |  | 
CC(C)c1nc(C(C)C)n(Cc2ccc(-c3ccccc3/C=C3\OC(=O)C=C3O)cc2)n1 [Compound 2b, 3,5-Diisopropyl-1-[2′-[(4-hydroxy-2(5H)-furanone-5(Z)-ylidene)methyl]biphenyl-4-yl]methyl-1H-1,2,4-triazole] | 191 to 193 | < 3.52 | 6.03 |  |  |  |  | 
CCCCc1nc(-c2ccco2)nn1Cc1ccc(-c2ccccc2/C=C2\NC(=O)CC2=O)cc1 [Compound 1j, 5-Butyl-3-(furan-2-yl)-1-[2′-[(2,4-dioxopyrrolidine-5(Z)-ylidene)methyl]biphenyl-4-yl]methyl-1H-1,2,4-triazole] | 169 to 170 | < 3.52 | 5.66 |  |  |  |  | 
CCCCc1nc(-c2ccccc2)nn1Cc1ccc(-c2ccccc2/C=C2\NC(=O)CC2=O)cc1 [Compound 1e, 5-Butyl-3-phenyl-1-[2′-[(2,4-dioxopyrrolidine-5(Z)-ylidene)methyl]biphenyl-4-yl]methyl-1H-1,2,4-triazole] | 180 to 181 | < 3.52 | < 5.20 |  |  |  |  | 
